Molecular target: ATP-dependent translocase ABCB1 (Homo sapiens, UniProt P08183)
Experiment: TP_TRANSPORTER: increase uptake (Vinblastine: 0.01 uM) in Caco-2 cells
Assay type: functional, cell-based

ATP-dependent translocase ABCB1, sequence (P08183 whole entry): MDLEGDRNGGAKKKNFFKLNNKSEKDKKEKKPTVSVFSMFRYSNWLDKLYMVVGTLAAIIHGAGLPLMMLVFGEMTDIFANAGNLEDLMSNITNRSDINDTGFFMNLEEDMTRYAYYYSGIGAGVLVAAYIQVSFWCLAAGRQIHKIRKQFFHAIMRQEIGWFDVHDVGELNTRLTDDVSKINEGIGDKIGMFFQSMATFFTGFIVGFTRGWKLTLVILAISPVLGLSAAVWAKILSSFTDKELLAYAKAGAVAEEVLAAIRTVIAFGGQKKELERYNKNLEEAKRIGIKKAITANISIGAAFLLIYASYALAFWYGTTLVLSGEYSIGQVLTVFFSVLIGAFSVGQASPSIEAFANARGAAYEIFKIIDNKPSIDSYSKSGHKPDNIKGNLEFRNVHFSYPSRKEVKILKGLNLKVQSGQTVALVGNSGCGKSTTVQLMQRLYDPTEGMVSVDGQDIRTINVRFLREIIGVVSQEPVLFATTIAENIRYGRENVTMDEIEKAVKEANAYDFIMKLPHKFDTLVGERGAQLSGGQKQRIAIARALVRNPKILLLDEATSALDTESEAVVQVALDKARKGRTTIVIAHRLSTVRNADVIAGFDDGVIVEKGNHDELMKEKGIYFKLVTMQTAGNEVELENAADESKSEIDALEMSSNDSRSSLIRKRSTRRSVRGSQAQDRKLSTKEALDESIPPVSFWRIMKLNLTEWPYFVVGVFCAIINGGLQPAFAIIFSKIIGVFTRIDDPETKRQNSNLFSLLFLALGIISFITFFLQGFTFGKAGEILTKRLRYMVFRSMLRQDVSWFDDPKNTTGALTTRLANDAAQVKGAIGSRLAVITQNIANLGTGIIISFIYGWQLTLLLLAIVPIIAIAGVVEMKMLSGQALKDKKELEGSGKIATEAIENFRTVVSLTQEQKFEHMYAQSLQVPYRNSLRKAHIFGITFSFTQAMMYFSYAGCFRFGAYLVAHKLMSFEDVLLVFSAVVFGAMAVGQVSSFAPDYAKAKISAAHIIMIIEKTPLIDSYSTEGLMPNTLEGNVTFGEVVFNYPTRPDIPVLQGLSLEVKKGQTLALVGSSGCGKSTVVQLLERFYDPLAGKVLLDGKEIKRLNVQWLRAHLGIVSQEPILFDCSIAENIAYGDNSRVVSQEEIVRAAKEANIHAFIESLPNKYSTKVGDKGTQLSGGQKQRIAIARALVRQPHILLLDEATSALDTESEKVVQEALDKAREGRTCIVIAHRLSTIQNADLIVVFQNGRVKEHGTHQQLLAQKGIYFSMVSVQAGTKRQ

Compound	EC200 [µM]
C/C(=C\COc1c2ccoc2cc2oc(=O)ccc12)CC[C@@H](O)C(C)(C)O	0.04
CC(C)=CCC/C(C)=C/COc1c2ccoc2cc2oc(=O)ccc12 [BERGAMOTTIN]	0.035
COc1c2ccoc2cc2oc(=O)ccc12 [BERGAPTEN]	0.05
O=c1ccc2c(O)c3ccoc3cc2o1 [BERGAPTOL]	0.3
C/C(=C\COc1c2ccoc2cc2oc(=O)ccc12)CCC(OC(C)(C)C(O)CC/C(C)=C/COc1c2ccoc2cc2oc(=O)ccc12)C(C)(C)O (stereo not given) [FC726]	0.035
